Assay results taken from ChEMBL document CHEMBL3507680, “University of Dundee, Gates Library screen for HepG2 cell viability”.

Test: Human HepG2 cell viability assay in 384 well format
Type: toxicity, cell-based
Parameters: dose 125 nL, time 70.5 hour; concentration not given beside the values
Conditions: HepG2 cells, read-out: Inhibition

CCNC(=O)N1CCC(c2ccccc2)C1 (stereo not given)
cytotoxicity at 70.5 h: 2.66%

CS(=O)(=O)N1CCC(CNC(=O)c2cnccn2)CC1
cytotoxicity at 70.5 h: 31.3%

COc1ccc(CN2CC[C@H](c3nnc(-c4ccco4)o3)C2)cc1
cytotoxicity at 70.5 h: 23%

NC(=O)CN1C(=O)CO[C@H]2CN(Cc3ccc(Cl)cc3)C[C@H]21
cytotoxicity at 70.5 h: 13%

CCNC(=O)N1C[C@@H]2OCC(=O)N(CC3CCCCC3)[C@@H]2C1
cytotoxicity at 70.5 h: -3.95%

COCC(=O)N[C@H]1C[C@@H](Cc2cc(CN3CCCCC3)on2)C1(C)C
cytotoxicity at 70.5 h: 24.1%

CN1CCOC[C@H]1c1nc(-c2cccc(F)c2)c[nH]1
cytotoxicity at 70.5 h: 2.61%

CC(C)(C)c1coc([C@@H]2COCCN2Cc2ccccn2)n1
cytotoxicity at 70.5 h: 2.91%

CC(C)(C)c1coc([C@@H]2COCCN2Cc2ncc[nH]2)n1
cytotoxicity at 70.5 h: -0.512%

CN1CCC(N2CCOC[C@H]2c2nc(-c3ccncc3)c[nH]2)CC1
cytotoxicity at 70.5 h: 3.14%

CC(=O)N1CC[C@H](c2nc3cc(F)ccc3o2)C1
cytotoxicity at 70.5 h: 2.32%

CCN(CC)C[C@H]1CN2CC[C@H]1C[C@@H]2CNC(=O)Nc1ccsc1
cytotoxicity at 70.5 h: -8.02%

Cn1cncc1-c1nnc([C@H]2CCN(Cc3ccc(CO)o3)C2)o1
cytotoxicity at 70.5 h: 5.94%

Cn1cncc1-c1nnc([C@H]2CCN(Cc3ncc[nH]3)C2)o1
cytotoxicity at 70.5 h: 2.99%

COc1ccc(-c2nnc([C@H]3CCN(CC(C)(C)C)C3)o2)cc1
cytotoxicity at 70.5 h: -1.13%

c1cc(-c2nnc([C@H]3CCN(C4CCCCC4)C3)o2)ccn1
cytotoxicity at 70.5 h: -0.595%

COc1cccc(CN2CC[C@H](c3nnc(C)o3)C2)c1
cytotoxicity at 70.5 h: 2.22%

c1cc(-c2nnc([C@H]3CCN(C4CCOCC4)C3)o2)ccn1
cytotoxicity at 70.5 h: 2.55%

c1ccc2c(Cc3nnc([C@H]4CCN(C5CCC5)C4)o3)c[nH]c2c1
cytotoxicity at 70.5 h: -6.08%

Cc1ccc(CN2CC[C@H](c3nnc(-c4ccco4)o3)C2)cc1
cytotoxicity at 70.5 h: 6.16%

CCCc1nnc([C@H]2CCN(Cc3ncc[nH]3)C2)o1
cytotoxicity at 70.5 h: -1.6%

O=C(C1CC1)N1C[C@@H](F)[C@@H](OCc2nc3ccccc3[nH]2)C1
cytotoxicity at 70.5 h: 4.35%

COc1ccc(CN2C[C@@H](F)[C@@H](OCc3nc4cnccc4[nH]3)C2)cn1
cytotoxicity at 70.5 h: -4.62%

N#Cc1cccc(CN2C[C@@H](F)[C@@H](OCc3nc4ccccc4[nH]3)C2)c1
cytotoxicity at 70.5 h: -2.32%

Cc1cccc(CN2C[C@@H](F)[C@@H](OCc3nc4ccccc4[nH]3)C2)n1
cytotoxicity at 70.5 h: -1.57%

COc1ccc(CN2C[C@@H](F)[C@@H](OCc3nc4ccccc4[nH]3)C2)cn1
cytotoxicity at 70.5 h: -2.98%

O=C1CO[C@H](c2ccc(NS(=O)(=O)Cc3ccccc3)cc2)[C@@H](CO)N1
cytotoxicity at 70.5 h: 12%

CC(=O)Nc1ccc2c(c1)nc1n2[C@@H](CNCc2ccccc2)COC1
cytotoxicity at 70.5 h: -11.7%

COc1ccc(CNC[C@H]2COCc3nc4cc(F)ccc4n32)cc1
cytotoxicity at 70.5 h: -14.9%

Cc1cc2nc(CO[C@H]3CN(C(=O)C4CC4)C[C@H]3F)[nH]c2cc1C
cytotoxicity at 70.5 h: 27.1%

Cc1cc2nc(CO[C@H]3CN(C4CCCCC4)C[C@H]3F)[nH]c2cc1C
cytotoxicity at 70.5 h: 3.34%

Cc1cc2nc(CO[C@H]3CN(CC4CC4)C[C@H]3F)[nH]c2cc1C
cytotoxicity at 70.5 h: -2.67%

COC(=O)c1cccc2nc([C@H]3CCN(CC(C)C)C3)oc12
cytotoxicity at 70.5 h: -4.07%

Fc1ccc2[nH]c([C@H]3CCN(C4CCOCC4)C3)nc2c1
cytotoxicity at 70.5 h: 4.63%

CCS(=O)(=O)c1ccc2oc([C@H]3CCN(CC4CCCCC4)C3)nc2c1
cytotoxicity at 70.5 h: 13.1%

Fc1ccc(OCc2nnc([C@H]3CCN(Cc4ccncc4)C3)o2)cc1
cytotoxicity at 70.5 h: -6.85%

CN1CC[C@H](c2nnc(Cc3c[nH]c4ccccc34)o2)C1
cytotoxicity at 70.5 h: -1.52%

COC(=O)[C@@H]1Cc2[nH]cnc2CN1Cc1cc2ccccc2o1
cytotoxicity at 70.5 h: -2.5%

CN(Cc1ccccc1)C(=O)[C@@H]1Cc2[nH]cnc2CN1C
cytotoxicity at 70.5 h: 9.41%

CN(C[C@H]1CN2CC[C@H]1C[C@@H]2CNC(=O)c1ccco1)c1ccccc1
cytotoxicity at 70.5 h: -0.576%

O[C@@H]1C[C@@H](c2nc(-c3ccccc3)no2)N(CC2CCCCC2)C1
cytotoxicity at 70.5 h: -12.5%

CC(C)CN1C(=O)COC[C@@H]1[C@H](O)c1ccc(NC(=O)C2CC2)cc1
cytotoxicity at 70.5 h: 5.4%

Cc1cccc(-c2noc([C@@H]3C[C@@H](O)CN3C)n2)c1
cytotoxicity at 70.5 h: 3.3%

O[C@@H]1C[C@@H](c2nc(Cc3ccccc3)no2)N(Cc2ccc(F)cc2)C1
cytotoxicity at 70.5 h: -19.1%

Cc1cccc(-c2noc([C@@H]3C[C@@H](O)CN3CC3CCCCC3)n2)c1
cytotoxicity at 70.5 h: -1.98%

Cc1ccc2oc([C@H]3CCN(Cc4ccccc4)C3)nc2c1
cytotoxicity at 70.5 h: 5.17%

COc1ccc(CN2CCC[C@H]2c2nc(-c3cncnc3N)no2)cc1
cytotoxicity at 70.5 h: 12.8%

COCc1cc(CC2(NCc3ccccc3Cl)COC2)no1
cytotoxicity at 70.5 h: -3.62%

CC(C)CNC1(Cc2cc(-c3ccccc3)on2)COC1
cytotoxicity at 70.5 h: -6.11%

O=C(NC[C@H]1OC[C@@H](N(CC2CC2)CC2CC2)[C@@H]1O)Nc1ccccc1
cytotoxicity at 70.5 h: -8.13%

Cc1nc(C)c(CN2CCOC[C@H](Oc3cnccn3)C2)s1
cytotoxicity at 70.5 h: -7.51%

CN1C[C@H]2CN(Cc3cccc(OC(F)(F)F)c3)CCN2C1=O
cytotoxicity at 70.5 h: 8.83%

Cc1ccc(CNC2(Cc3cc(C(C)(C)O)on3)COC2)o1
cytotoxicity at 70.5 h: -5.2%

COC(=O)[C@H]1CN(C(=O)NC(C)C)CCN1C(=O)CSC
cytotoxicity at 70.5 h: -5.64%

c1ccc(-c2cc(CC3(NCc4ncc[nH]4)COC3)no2)cc1
cytotoxicity at 70.5 h: -4.27%

CCCN(CCC)C1(Cc2cc(-c3cccc(O)c3)on2)COC1
cytotoxicity at 70.5 h: -2.95%

CCCS(=O)(=O)N1Cc2c(ncn2Cc2ccccc2)C[C@H]1C(=O)OC
cytotoxicity at 70.5 h: -5.74%

O[C@@H]1C[C@@H](c2nc(Cc3ccccc3)no2)N(CC2CC2)C1
cytotoxicity at 70.5 h: 2.65%

CN1C[C@@H](N)C[C@H]1c1nc(-c2ccc3c(c2)OCO3)no1
cytotoxicity at 70.5 h: -1.52%

O[C@H]1CC[C@@H](Cc2cc(-c3ccccn3)on2)O[C@@H]1CNCC1CC1
cytotoxicity at 70.5 h: -7.3%

O=C(Nc1ccccc1)[C@H]1O[C@H](CCN2CCNCC2)CC[C@@H]1O
cytotoxicity at 70.5 h: 0.346%

CN1Cc2nc[nH]c2C[C@H]1C(=O)NC1CCCCC1
cytotoxicity at 70.5 h: -3.45%

NC(=O)CN1C(=O)CO[C@H]2CN(Cc3ccc(F)c(F)c3)C[C@H]21
cytotoxicity at 70.5 h: -3.9%

Cc1cccc(CS(=O)(=O)NCc2nn(C)c3c2COCC3)c1
cytotoxicity at 70.5 h: -7.96%

Cn1nc(CNC(=O)C2CCC2)cc1C1CC1
cytotoxicity at 70.5 h: -4.15%

Cn1nc(CNC(=O)C2CCCCC2)cc1C1CC1
cytotoxicity at 70.5 h: 33%

CCSc1ccccc1C(=O)N1CCC(S(=O)(=O)c2nncn2C)CC1
cytotoxicity at 70.5 h: -5.86%

Cn1cnnc1S(=O)(=O)C1CCN(S(=O)(=O)c2ccccc2F)CC1
cytotoxicity at 70.5 h: -9.91%

CNC(=O)CS(=O)(=O)C1CCN(S(=O)(=O)c2cccnc2)CC1
cytotoxicity at 70.5 h: -3.91%

O=C(Cc1ccc(Br)cc1)N1CC(S(=O)(=O)C2CCCCC2)C1
cytotoxicity at 70.5 h: -4.51%

O=C(c1cccnc1)N1CC(S(=O)(=O)c2ccc(Cl)cc2)C1
cytotoxicity at 70.5 h: -10.4%

O=C(c1ccccn1)N1CC(S(=O)(=O)c2ccc(Cl)cc2)C1
cytotoxicity at 70.5 h: 1.72%

O=C(Nc1ccc2c(c1)OCO2)Nc1cnn(C2CCOCC2)c1
cytotoxicity at 70.5 h: -0.609%

Cc1ccc(S(=O)(=O)Nc2cnn(C3CCOCC3)c2)cc1C
cytotoxicity at 70.5 h: 2.28%

CC(=O)c1ccc(S(=O)(=O)Nc2cnn(C3CCOCC3)c2)cc1
cytotoxicity at 70.5 h: 6.82%

CNC(=O)c1cccc(CNC(=O)C2CC(=O)N(CCN(C)C)C2)c1 (stereo not given)
cytotoxicity at 70.5 h: -5.17%

COCC(O)CNC(=O)c1cnc(-c2ccccc2)nc1O (stereo not given)
cytotoxicity at 70.5 h: -11.4%

CCCC(C)CN1CCC(n2cc(C3CCCC3)nn2)CC1 (stereo not given)
cytotoxicity at 70.5 h: -6.08%

CCn1nc(CC(C)C)cc1C(=O)N1C[C@H](O)[C@@H](N2CCCCC2)C1
cytotoxicity at 70.5 h: -4.55%

CCc1ncc(CNC2CC(=O)N(CCc3cccc(Cl)c3)C2)cn1 (stereo not given)
cytotoxicity at 70.5 h: -4.07%

CCn1c(Cn2cncn2)nnc1C1CCN(Cc2ccncc2)CC1
cytotoxicity at 70.5 h: -6.34%

CC(C)c1nccn1CCCNC(=O)c1ccc(N(C)C)nc1
cytotoxicity at 70.5 h: -1.73%

Cn1cccc1C(=O)N1CCCN(CCCc2ccccc2)CC1
cytotoxicity at 70.5 h: 7.34%

Cn1c(Cn2ccnc2)nnc1C1CCN(C(=O)C2(C)CC2)CC1
cytotoxicity at 70.5 h: -9.41%

CCn1nc(C)c(CCNC(=O)C2CCCN(C(=O)N(C)C)C2)c1C (stereo not given)
cytotoxicity at 70.5 h: -11.9%

Cc1nn(C)cc1C(=O)N1C[C@H]2CC[C@@H]1CN(S(=O)(=O)N(C)C)C2
cytotoxicity at 70.5 h: -4.81%

CCOCCn1nc(C)cc1C(=O)N1CC[C@](C)(O)[C@H](C)C1
cytotoxicity at 70.5 h: -8.61%

Cc1cc(N2CCC3(CCC(=O)N(CC4CC4)C3)CC2)nc(N)n1
cytotoxicity at 70.5 h: -9.89%

O=C(O)CCc1cc2n(n1)CCCN(C(=O)c1ccc3cc[nH]c3c1)C2
cytotoxicity at 70.5 h: -14%

NC(=O)COc1cccc(C(=O)Nc2cnc3n2CCCC3)c1
cytotoxicity at 70.5 h: -5.66%

CN(Cc1ccon1)C(=O)C1CC(=O)N(Cc2ccncc2)C1 (stereo not given)
cytotoxicity at 70.5 h: -6.33%

O=C1O[C@@H]2CN(Cc3cccc(F)c3)C[C@@H]2N1CCCN1CCOCC1
cytotoxicity at 70.5 h: 9.24%

O=C(CCc1cc2n(n1)CCCN(C(=O)c1ccccn1)C2)NC1CC1
cytotoxicity at 70.5 h: -4.46%

COc1ccc2c(c1)CCN(CCC(=O)NC1CCCCC1)CC2
cytotoxicity at 70.5 h: -9.14%

CN1CCCN(C[C@@H]2CN(C(=O)CCC3CCCC3)C[C@@H]2CO)CC1
cytotoxicity at 70.5 h: -7.86%

CCn1nc(C)c(CCNC(=O)C2CCCN(CC(N)=O)C2)c1C (stereo not given)
cytotoxicity at 70.5 h: 19.1%

Cc1noc(C)c1CN1CC2(CCN(C(=O)c3cscn3)CC2)CC1=O
cytotoxicity at 70.5 h: -10.1%

CN1CCN(Cc2nc3ccccc3[nH]2)[C@H]2CS(=O)(=O)C[C@H]21
cytotoxicity at 70.5 h: -10.2%

COc1ccccc1[C@@H]1CN(C(=O)c2csc(C)n2)C[C@H]1C(=O)O
cytotoxicity at 70.5 h: -2.79%

O=S1(=O)C[C@@H]2[C@H](C1)N(Cc1cc(Cl)cc(Cl)c1)CCN2CC1CC1
cytotoxicity at 70.5 h: -17.1%

NC(=O)CN1CC2(CCC1=O)CCN(Cc1cc(F)ccc1Cl)CC2
cytotoxicity at 70.5 h: -11.5%

Cc1noc(C)c1C(=O)N(C)Cc1nc(-c2ccccn2)no1
cytotoxicity at 70.5 h: -1.56%

Cc1noc([C@@H]2CCCN2C(=O)C2CCN(C(=O)C3CCC3)CC2)n1
cytotoxicity at 70.5 h: 10.6%

Cc1ccc2cc(C3(O)CCN(C(=O)CN4CCCC4)CC3)ccc2n1
cytotoxicity at 70.5 h: -3.01%

Cc1nc[nH]c1CN1C[C@@H]2CC[C@H](C1)N(C(=O)CCc1cnn(C)c1)C2
cytotoxicity at 70.5 h: -1.54%
